Columns and labels:
ULK1 kinase domain = target: T1, ULK1 kinase domain (Homo sapiens, UniProt O75385); experiment: Differential scanning fluorimetry (thermal shift); assay type: binding; details: 2 μM ULK1 kinase domain, 50 μM compound, vs DMSO reference
T1 construct: The protein expression construct of ULK1 kinase domain (1-283) was cloned; 6His-Sumo (N, cleaved yes); made in house; host or cells: E. coli BL21 star, co-expressed with lambda phosphatase
T1 sequence (O75385 1-283): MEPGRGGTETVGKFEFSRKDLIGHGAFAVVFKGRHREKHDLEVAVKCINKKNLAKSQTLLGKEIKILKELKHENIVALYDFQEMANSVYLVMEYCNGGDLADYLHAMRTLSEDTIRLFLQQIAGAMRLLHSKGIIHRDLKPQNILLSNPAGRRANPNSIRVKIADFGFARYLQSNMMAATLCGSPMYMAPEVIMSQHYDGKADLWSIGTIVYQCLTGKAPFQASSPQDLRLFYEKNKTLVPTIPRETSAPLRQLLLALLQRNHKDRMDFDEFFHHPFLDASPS

ULK1 kinase = target: T2, ULK1 kinase (Homo sapiens, UniProt O75385); experiment: Radiometric HotSpot kinase assay (Reaction Biology); assay type: biochemical; details: activity-based ULK1 kinase assay
T2 construct: purchased Reaction Biology
T2 sequence (O75385 1-1050): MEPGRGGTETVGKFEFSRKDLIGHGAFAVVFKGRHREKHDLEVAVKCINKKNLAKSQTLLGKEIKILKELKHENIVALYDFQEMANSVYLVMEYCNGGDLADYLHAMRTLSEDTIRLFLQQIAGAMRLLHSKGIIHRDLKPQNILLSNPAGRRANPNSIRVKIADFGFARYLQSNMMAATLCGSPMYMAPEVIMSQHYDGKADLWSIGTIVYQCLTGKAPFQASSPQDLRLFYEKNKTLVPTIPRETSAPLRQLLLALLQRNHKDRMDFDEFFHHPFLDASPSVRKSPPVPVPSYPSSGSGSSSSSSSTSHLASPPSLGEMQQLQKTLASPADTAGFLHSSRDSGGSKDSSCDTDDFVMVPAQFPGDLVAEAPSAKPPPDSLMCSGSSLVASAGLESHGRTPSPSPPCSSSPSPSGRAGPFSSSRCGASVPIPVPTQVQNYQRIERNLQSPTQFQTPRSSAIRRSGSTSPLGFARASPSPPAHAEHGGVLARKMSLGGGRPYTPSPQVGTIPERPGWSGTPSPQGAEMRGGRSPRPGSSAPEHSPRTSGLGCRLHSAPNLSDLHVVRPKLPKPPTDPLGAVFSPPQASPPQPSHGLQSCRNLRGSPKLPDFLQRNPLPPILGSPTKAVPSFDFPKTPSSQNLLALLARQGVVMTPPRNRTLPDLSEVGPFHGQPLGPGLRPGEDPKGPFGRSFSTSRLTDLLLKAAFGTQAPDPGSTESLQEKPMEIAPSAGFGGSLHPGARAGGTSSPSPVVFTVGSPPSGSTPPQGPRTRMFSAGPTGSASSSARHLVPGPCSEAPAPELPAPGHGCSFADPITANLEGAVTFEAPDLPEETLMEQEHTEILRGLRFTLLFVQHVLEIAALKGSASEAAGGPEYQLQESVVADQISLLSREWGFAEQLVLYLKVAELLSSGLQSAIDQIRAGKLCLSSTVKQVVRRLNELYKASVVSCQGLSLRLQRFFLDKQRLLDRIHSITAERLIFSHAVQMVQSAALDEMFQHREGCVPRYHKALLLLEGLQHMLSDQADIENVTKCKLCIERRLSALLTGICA

GST-ULK1 = target: T3, GST-ULK1 (Homo sapiens, UniProt O75385); experiment: LanthaScreen ULK1 inhibitor assay; assay type: biochemical; details: 5 nM GST-ULK1, 30 nM tracer, 20 μM ATP, 1 hr room temperature
T3 sequence (O75385 1-1050): T2 sequence (O75385 1-1050)

| IC50 (GST-ULK1) [nM] | Structure (SMILES) | ΔTm at 50 µM (ULK1 kinase domain) [°C] | IC50 (ULK1 kinase) [nM] |
| --- | --- | --- | --- |
| – | CS(=O)(=O)NC1CCN(C(=O)c2cc(-c3cnc4[nH]c(-c5ccc(F)cc5)cc4c3)cs2)C1 (stereo not shown) [Compound 9, N-(1-(4-(2-(4-Fluorophenyl)-1H-pyrrolo[2,3-b]pyridin-5-yl)thiophene-2-carbonyl)pyrrolidin-3-yl)methanesulfonamide] | 1.29 | – |
| – | O=C(c1cc(-c2cnc3[nH]c(-c4ccc(F)cc4)cc3c2)cs1)N1CCC(NC(=O)C(F)(F)F)C1 (stereo not shown) [Compound 24, 2,2,2-Frifluoro-N-(1-(4-(2-(4-fluorophenyl)-1H-pyrrolo[2,3-b]pyridin-5-yl)thiophene-2-carbonyl)pyrrolidin-3-yl)acetamide] | 0.4 | – |
| – | CC(C)(C)OC(=O)N1CCC(c2cc3cc(-c4csc(C(=O)NCC(F)(F)F)c4)cnc3[nH]2)CC1 [Compound 40, tert-Butyl 4-(5-(5-((2,2,2-trifluoroethyl)carbamoyl)thiophen-3-yl)-1H-pyrrolo[2,3-b]-pyridin-2-yl)piperidine-1-carboxylate] | 1.63 | – |
| – | CC(C)(C)OC(=O)N1CCCC(c2cc3cc(-c4csc(C(=O)NCC(F)(F)F)c4)cnc3[nH]2)C1 (stereo not shown) [Compound 43, tert-Butyl 3-(5-(5-((2,2,2-trifluoroethyl)carbamoyl)thiophen-3-yl)-1H-pyrrolo[2,3-b]-pyridin-2-yl)piperidine-1-carboxylate] | 4.2 | – |
| – | O=C(c1nc(-c2cnc3[nH]c(-c4ccc(F)cc4)cc3c2)cs1)N1CC(F)(F)C1 [Compound 75, (3,3-difluoroazetidin-1-yl)(4-(2-(4-fluorophenyl)-1H-pyrrolo[2,3-b]-pyridin-5-yl)thiazol-2-yl)-methanone] | 3 | – |
| – | FC1(F)CN(c2c(C(F)(F)F)cnc3[nH]c(C4CCOCC4)cc23)C1 [Compound 85, 4-(3,3-difluoroazetidin-1-yl)-2-(tetrahydro-2H-pyran-4-yl)-5-(trifluoromethyl)-1H-pyrrolo[2,3-b]pyridine] | 0.54 | – |
| – | FC1(F)CCN(c2c(C(F)(F)F)cnc3[nH]c(C4CCOCC4)cc23)CC1 [Compound 92, 4-(4,4-difluoropiperidin-1-yl)-2-(tetrahydro-2H-pyran-4-yl)-5-(trifluoromethyl)-1H-pyrrolo[2,3-b]pyridine] | 0.88 | – |
| – | CN1CCC(c2cc3c(NCCCN4CCCC4)c(C(F)(F)F)cnc3[nH]2)CC1 [Compound 94, 2-(1-methylpiperidin-4-yl)-N-(3-(pyrrolidin-1-yl)propyl)-5-(trifluoromethyl)-1H-pyrrolo[2,3-b]pyridin-4-amine] | 0.76 | – |
| – | CN1CCC(c2cc3c(N4CC(F)(F)C4)c(C(F)(F)F)cnc3[nH]2)CC1 [Compound 96, 4-(3,3-difluoroazetidin-1-yl)-2-(1-methylpiperidin-4-yl)-5-(trifluoromethyl)-1H-pyrrolo[2,3-b]pyridine] | 3.09 | – |
| 80 | O=C(NCC1(O)CC1)c1cc(-c2cnc3[nH]c(C4=CCNC4)cc3c2)cs1 [Compound 109] | – | – |
| 8 | FC(F)(F)c1cnc2[nH]c(C3=CCCNC3)cc2c1NCCN1CCNCC1 [Compound 112] | – | – |
| 63 | FC(F)(F)c1cnc2[nH]c(C3=CCNC3)cc2c1NCCN1CCNCC1 [Compound 113] | – | – |
| 14 | FC(F)(F)c1cnc2[nH]c(C3=CCNCC3)cc2c1NCCN1CCNCC1 [Compound 114] | – | – |
| 81 | FC1(F)CN(c2c(C(F)(F)F)cnc3[nH]c(C4=CCNCC4)cc23)C1 [Compound 115] | – | – |
| 201 | FC(F)(F)c1cnc2[nH]c(C3=CCCNC3)cc2c1NCCN1CCOCC1 [Compound 116] | – | – |
| 85 | FC(F)(F)c1cnc2[nH]c(C3=CCNC3)cc2c1NCCN1CCOCC1 [Compound 117] | – | – |
| 126 | FC(F)(F)c1cnc2[nH]c(C3=CCNCC3)cc2c1NCCN1CCOCC1 [Compound 118] | – | – |
| 1600 | FC(F)(F)c1cnc2[nH]c(C3=CCCNC3)cc2c1NCCCN1CCCC1 [Compound 119] | – | – |
| 1210 | FC(F)(F)c1cnc2[nH]c(C3=CCNC3)cc2c1NCCCN1CCCC1 [Compound 120] | – | – |
| 320 | FC(F)(F)c1cnc2[nH]c(C3=CCNCC3)cc2c1NCCCN1CCCC1 [Compound 121] | – | – |
| 884 | FC1(F)CN(c2c(C(F)(F)F)cnc3[nH]c(C4=CCCNC4)cc23)C1 [Compound 141] | – | – |
| 88 | O=C(NCC(F)(F)F)c1cc(-c2cnc3[nH]c(C4=CCN(C5CCC(C(=O)O)CC5)CC4)cc3c2)cs1 (stereo not shown) [compound 142] | – | – |

| Structure (SMILES) | IC50 (GST-ULK1) [nM] | ΔTm at 50 µM (ULK1 kinase domain) [°C] | IC50 (ULK1 kinase) [nM] |
| --- | --- | --- | --- |
| CS(=O)(=O)N1CCN(C(=O)c2cc(-c3cnc4[nH]c(-c5ccc(F)cc5)cc4c3)cs2)CC1 [Compound 29, (4-(2-(4-Fluorophenyl)-1H-pyrrolo[2,3-b]pyridin-5-yl)thiophen-2-yl)(4-(methyl-sulfonyl)piperazin-1-yl)methanone] | 1230 | 0.9 | 938 |
| CC(C)(C)OC(=O)N1CCC=C(c2cc3cc(-c4csc(C(=O)NCC(F)(F)F)c4)cnc3[nH]2)C1 [Compound 41, tert-Butyl 5-(5-(5-((2,2,2-trifluoroethyl)carbamoyl)thiophen-3-yl)-1H-pyrrolo[2,3-b]-pyridin-2-yl)-3,6-dihydropyridine-1(2H)-carboxylate] | 75 | 9.89 | 333 |
| O=C(NC[C@@H](O)CO)c1cccc(-c2cnc3[nH]c(-c4ccc(F)cc4)cc3c2)c1 [Compound 48, (R)—N-(2,3-Dihydroxypropyl)-3-(2-(4-fluorophenyl)-1H-pyrrolo[2,3-b]pyridin-5-yl)benzamide] | 475 | 4.52 | 261 |
| O=C(NC(CO)CO)c1cccc(-c2cnc3[nH]c(-c4ccc(F)cc4)cc3c2)c1 [Compound 49, N-(1,3-Dihydroxypropan-2-yl)-3-(2-(4-fluorophenyl)-1H-pyrrolo[2,3-b]pyridin-5-yl)benzamide] | 543 | 5.11 | 341 |
| O=C(NCC(O)C(F)(F)F)c1cccc(-c2cnc3[nH]c(-c4ccc(F)cc4)cc3c2)c1 (stereo not shown) [Compound 50, 3-(2-(4-Fluorophenyl)-1H-pyrrolo[2,3-b]pyridin-5-yl)-N-(3,3,3-trifluoro-2-hydroxy-propyl)benzamide] | 86 | 4.4 | 91 |
| O=C(NC[C@H](O)CO)c1cccc(-c2cnc3[nH]c(-c4ccc(F)cc4)cc3c2)c1 [Compound 51, (S)—N-(2,3-Dihydroxypropyl)-3-(2-(4-fluorophenyl)-1H-pyrrolo[2,3-b]pyridin-5-yl)-benzamide] | 387 | 4.76 | 184 |
| O=C(NC[C@@H](O)CO)c1cccc(-c2cnc3[nH]c(-c4ccc(F)cc4)cc3c2)n1 [Compound 52, (R)—N-(2,3-Dihydroxypropyl)-6-(2-(4-fluorophenyl)-1H-pyrrolo[2,3-b]pyridin-5-yl)-picolinamide] | 106 | 8.86 | 45 |
| CC[C@H](CO)NC(=O)c1cccc(-c2cnc3[nH]c(-c4ccc(F)cc4)cc3c2)c1 [Compound 53, (R)-3-(2-(4-Fluorophenyl)-1H-pyrrolo[2,3-b]pyridin-5-yl)-N-(1-hydroxybutan-2-yl)benzamide] | 94 | 3.11 | 66 |
| CC[C@@H](CO)NC(=O)c1cccc(-c2cnc3[nH]c(-c4ccc(F)cc4)cc3c2)c1 [Compound 54, (S)-3-(2-(4-Fluorophenyl)-1H-pyrrolo[2,3-b]pyridin-5-yl)-N-(1-hydroxybutan-2-yl)benzamide] | 5850 | 1.62 | 1470 |
